PubChem BioAssay (NCI)
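Each compound was tested at five concentrations against cells in 96-well plates for 48 hours. GI50: concentration for 50% inhibition of growth. Definition used: TGI = concentration required for complete inhibition of growth.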

Legend:
Test in all cases: inhibition of tumour cell growth, NCI panel, 48 h
COLO 205 colon = test system: COLO 205 colon
SK-MEL-5 melanoma = test system: SK-MEL-5 melanoma
CCRF-CEM leukemia = test system: CCRF-CEM leukemia
M14 melanoma = test system: M14 melanoma
RXF 393 renal = test system: RXF 393 renal
SK-MEL-2 melanoma = test system: SK-MEL-2 melanoma
MDA-MB-435 = test system: MDA-MB-435
NCI-H226 lung = test system: NCI-H226 lung
SNB-19 CNS = test system: SNB-19 CNS
OVCAR-8 ovarian = test system: OVCAR-8 ovarian
UACC-257 melanoma = test system: UACC-257 melanoma
LOX IMVI melanoma = test system: LOX IMVI melanoma
HS 578T breast = test system: HS 578T breast
EKVX NSCLC = test system: EKVX NSCLC
DU-145 prostate = test system: DU-145 prostate
T-47D breast = test system: T-47D breast
OVCAR-5 ovarian = test system: OVCAR-5 ovarian
NCI-H522 lung = test system: NCI-H522 lung
TK-10 renal = test system: TK-10 renal
HCC-2998 colon = test system: HCC-2998 colon
HL-60(TB) leukemia = test system: HL-60(TB) leukemia
CAKI-1 renal = test system: CAKI-1 renal
BT-549 breast = test system: BT-549 breast
HCT-116 colon = test system: HCT-116 colon
SK-OV-3 ovarian = test system: SK-OV-3 ovarian
ACHN renal = test system: ACHN renal
MOLT-4 leukemia = test system: MOLT-4 leukemia
NCI-H460 lung = test system: NCI-H460 lung
786-0 renal = test system: 786-0 renal
OVCAR-4 ovarian = test system: OVCAR-4 ovarian
K-562 leukemia = test system: K-562 leukemia
MCF7 breast = test system: MCF7 breast
HOP-62 NSCLC = test system: HOP-62 NSCLC
KM12 colon = test system: KM12 colon
IGROV1 ovarian = test system: IGROV1 ovarian
SNB-75 CNS = test system: SNB-75 CNS
OVCAR-3 ovarian = test system: OVCAR-3 ovarian
MALME-3M melanoma = test system: MALME-3M melanoma
SK-MEL-28 melanoma = test system: SK-MEL-28 melanoma
SF-539 CNS = test system: SF-539 CNS
A498 renal = test system: A498 renal
UO-31 renal = test system: UO-31 renal
U251 CNS = test system: U251 CNS
RPMI-8226 leukemia = test system: RPMI-8226 leukemia
MDA-MB-468 breast = test system: MDA-MB-468 breast
HCT-15 colon = test system: HCT-15 colon
NCI-H23 lung = test system: NCI-H23 lung
SW-620 colon = test system: SW-620 colon
A549 NSCLC = test system: A549 NSCLC
MDA-MB-231 breast = test system: MDA-MB-231 breast
SR leukemia = test system: SR leukemia
SN12C renal = test system: SN12C renal
UACC-62 melanoma = test system: UACC-62 melanoma
SF-295 CNS = test system: SF-295 CNS
PC-3 prostate = test system: PC-3 prostate
HOP-92 NSCLC = test system: HOP-92 NSCLC
SF-268 CNS = test system: SF-268 CNS
HT29 colon = test system: HT29 colon

In the case of `N#Cc1c(-c2ccccc2Cl)cc(-c2ccc3ccccc3c2)[nH]c1=O`, the GI50 (COLO 205 colon) is reported as 53.5 µM, the TGI (COLO 205 colon) is reported as > 100 µM and the GI50 (SK-MEL-5 melanoma) is reported as 15.6 µM. For the same compound, the TGI (SK-MEL-5 melanoma) was 46.6 µM, the GI50 (CCRF-CEM leukemia) was > 100 µM and the TGI (CCRF-CEM leukemia) was > 100 µM. For the same compound, the GI50 (M14 melanoma) was 20.1 µM, the TGI (M14 melanoma) was 54.9 µM and the GI50 (RXF 393 renal) was 13.5 µM. The TGI (RXF 393 renal) was 28.8 µM, the GI50 (SK-MEL-2 melanoma) was 14.9 µM and the TGI (SK-MEL-2 melanoma) was 32.5 µM. For the same compound, the GI50 (MDA-MB-435) was 27.8 µM, the TGI (MDA-MB-435) was > 100 µM and the GI50 (NCI-H226 lung) was 16.1 µM. The TGI (NCI-H226 lung) was 38.9 µM, the GI50 (SNB-19 CNS) was 18.5 µM and the TGI (SNB-19 CNS) was 42.5 µM. For the same compound, the GI50 (OVCAR-8 ovarian) was 17.6 µM, the TGI (OVCAR-8 ovarian) was 36.3 µM and the GI50 (UACC-257 melanoma) was 22.2 µM. For the same compound, the TGI (UACC-257 melanoma) was 71.9 µM, the GI50 (LOX IMVI melanoma) was 44.4 µM and the TGI (LOX IMVI melanoma) was > 100 µM. For the same compound, the GI50 (HS 578T breast) was 18.5 µM, the TGI (HS 578T breast) was 54.9 µM and the GI50 (EKVX NSCLC) was 31.4 µM. The TGI (EKVX NSCLC) was > 100 µM, the GI50 (DU-145 prostate) was 36.1 µM and the TGI (DU-145 prostate) was > 100 µM. For the same compound, the GI50 (T-47D breast) was 27.3 µM, the TGI (T-47D breast) was > 100 µM and the GI50 (OVCAR-5 ovarian) was 75.7 µM. For the same compound, the TGI (OVCAR-5 ovarian) was > 100 µM, the GI50 (NCI-H522 lung) was 68.2 µM and the TGI (NCI-H522 lung) was > 100 µM. It also gave a GI50 (TK-10 renal) of 18.3 µM, a TGI (TK-10 renal) of 41.8 µM and a GI50 (HCC-2998 colon) of 53.1 µM. The TGI (HCC-2998 colon) was > 100 µM, the GI50 (HL-60(TB) leukemia) was > 100 µM and the TGI (HL-60(TB) leukemia) was > 100 µM. For the same compound, the GI50 (CAKI-1 renal) was 15.9 µM, the TGI (CAKI-1 renal) was 33.1 µM and the GI50 (BT-549 breast) was 25.2 µM. For the same compound, the TGI (BT-549 breast) was 85.9 µM, the GI50 (HCT-116 colon) was 27.2 µM and the TGI (HCT-116 colon) was 89.8 µM. It also gave a GI50 (SK-OV-3 ovarian) of 15.9 µM, a TGI (SK-OV-3 ovarian) of 32.4 µM and a GI50 (ACHN renal) of 18.8 µM. For the same compound, the TGI (ACHN renal) was 39.9 µM, the GI50 (MOLT-4 leukemia) was > 100 µM and the TGI (MOLT-4 leukemia) was > 100 µM. It also gave a GI50 (NCI-H460 lung) of 22.2 µM, a TGI (NCI-H460 lung) of 56.9 µM and a GI50 (786-0 renal) of 16.4 µM. For the same compound, the TGI (786-0 renal) was 30.8 µM, the GI50 (OVCAR-4 ovarian) was 17.2 µM and the TGI (OVCAR-4 ovarian) was 38.9 µM. For the same compound, the GI50 (K-562 leukemia) was > 100 µM, the TGI (K-562 leukemia) was > 100 µM and the GI50 (MCF7 breast) was 38.1 µM. The TGI (MCF7 breast) was > 100 µM, the GI50 (HOP-62 NSCLC) was 15.3 µM and the TGI (HOP-62 NSCLC) was 29.8 µM. For the same compound, the GI50 (KM12 colon) was 88.4 µM, the TGI (KM12 colon) was > 100 µM and the GI50 (IGROV1 ovarian) was 34.2 µM. For the same compound, the TGI (IGROV1 ovarian) was > 100 µM, the GI50 (SNB-75 CNS) was 10.2 µM and the TGI (SNB-75 CNS) was 27.7 µM. It also gave a GI50 (OVCAR-3 ovarian) of 24.2 µM, a TGI (OVCAR-3 ovarian) of 94.3 µM and a GI50 (MALME-3M melanoma) of 16.3 µM. The TGI (MALME-3M melanoma) was 35.7 µM, the GI50 (SK-MEL-28 melanoma) was 28.1 µM and the TGI (SK-MEL-28 melanoma) was > 100 µM. It also gave a GI50 (SF-539 CNS) of 20.9 µM, a TGI (SF-539 CNS) of 46 µM and a GI50 (A498 renal) of 15.9 µM. The TGI (A498 renal) was 34.3 µM, the GI50 (UO-31 renal) was 16 µM and the TGI (UO-31 renal) was 34.9 µM. For the same compound, the GI50 (U251 CNS) was 17.6 µM, the TGI (U251 CNS) was 38.5 µM and the GI50 (RPMI-8226 leukemia) was 76 µM. The TGI (RPMI-8226 leukemia) was > 100 µM, the GI50 (MDA-MB-468 breast) was 23 µM and the TGI (MDA-MB-468 breast) was 73.2 µM. For the same compound, the GI50 (HCT-15 colon) was 84.8 µM, the TGI (HCT-15 colon) was > 100 µM and the GI50 (NCI-H23 lung) was 28.4 µM. The TGI (NCI-H23 lung) was > 100 µM, the GI50 (SW-620 colon) was 42 µM and the TGI (SW-620 colon) was > 100 µM. The GI50 (A549 NSCLC) was 27.3 µM, the TGI (A549 NSCLC) was > 100 µM and the GI50 (MDA-MB-231 breast) was 20.3 µM. The TGI (MDA-MB-231 breast) was 45.5 µM, the GI50 (SR leukemia) was > 100 µM and the TGI (SR leukemia) was > 100 µM. For the same compound, the GI50 (SN12C renal) was 31.7 µM, the TGI (SN12C renal) was > 100 µM and the GI50 (UACC-62 melanoma) was 27.9 µM. For the same compound, the TGI (UACC-62 melanoma) was > 100 µM, the GI50 (SF-295 CNS) was 17.2 µM and the TGI (SF-295 CNS) was 33.8 µM. The GI50 (PC-3 prostate) was 41.1 µM, the TGI (PC-3 prostate) was > 100 µM and the GI50 (HOP-92 NSCLC) was 11.3 µM. For the same compound, the TGI (HOP-92 NSCLC) was 26.8 µM, the GI50 (SF-268 CNS) was 28.4 µM and the TGI (SF-268 CNS) was > 100 µM. The GI50 (HT29 colon) was > 100 µM and the TGI (HT29 colon) was > 100 µM.
